The compounds below were run on AGS cells (KRAS^G12D) (assay: Detection of cell proliferation in vitro by MTT/MTS method (cell activity experiment)). Details: AGS cells; MTT/MTS; 3 days of drug treatment; read-out: AGS IC50.
Assay type: cell-based
Procedure: The above cells were cultured in a complete medium containing 10% fetal bovine serum, 100 IU/mL penicillin and 100 jag/mL streptomycin, in the aseptic incubator with 95% relative humidity and 5% CO2 concentration.
2. Reagents: F12K, D-PBS, FBS, Penicillin Streptomycin, Tryple, MTT (5 mg/mL)
Appropriate amount of compound powder was weighed in a 1.5 mL centrifuge tube, then the corresponding volume of dimethyl sulfoxide (DMSO) was added to form a 20 mM reserve solution. The solution was packed separately and stored in a refrigerator at −20° C. away from light.
The cells were inoculated in a cell culture bottle, added an appropriate amount of complete medium, and cultured in a sterile incubator. When the degree of cell confluence reached more than 80%, subculture was carried out.
The adherent cells in logarithmic growth phase were digested by trypsin or the suspension cells were collected by centrifugation and counted. 90 μL cell suspension was inoculated into 96-well plate according to the cell inoculation density of 1000 cells per well, and 10 μL of 10-fold final concentration compound diluted by culture medium was added 24 hours later. Compared with the hole with the same volume of 5% DMSO as control, the final concentration of DMSO was 0.5%. After 3 days of drug treatment, the cell viability was detected by MTT. The specific methods are as follows: 10 μL MTT per well was added into the incubator for 4 hours, the supernatant was discarded and 150 μL DMSO was added to dissolve the crystal methylazan, and the absorbance of 490 nm was detected by enzyme labeling instrument, or 10 μL MITS per well was added to the incubator for 4 hours, and […] absorbance was detected directly by enzyme labeling instrument. GraphPad Prism 6 software makes dose-effect curve and calculates IC50.

Work on `C#Cc1c(F)ccc2cc(O)cc(-c3ccc4c(N5C[C@H]6CC[C@@H](C5)C6[S+](C)[O-])nc(OC[C@@]56CCCN5C[C@H](F)C6)nc4c3F)c12` (stereo partly drawn) [Example 130, 5-ethynyl-6-fluoro-4-(8-fluoro-2-(((2R,7aS)-2-fluorotetrahydro-1H-pyrrolizin-7a(5H)-yl)methoxy)-4-((1R,5S, 8R)-8-(methylsulfinyl)-3-azabicyclo[3.2.1]octan-3-yl)quinazolin-7-yl)naphthalen-2-ol] yielded an IC50 greater than 2.5 µM.

Same assay, conditions: Homo sapiens, AGS, 72 h, AGS cells; MTT/MTS; 3 days of drug treatment; read-out: AGS IC50

Compared with `CCC1CCCc2cc(O)cc(-c3c(Cl)cc4c(N5C[C@H]6CC[C@@H](C5)N6)nc(OC[C@@]56CCCN5C[C@H](F)C6)nc4c3F)c21` (stereo partly drawn) [Example 303, 4-(4-((1R,5S)-3,8-diazabicyclo[3.2.1]octan-3-yl)-6-chloro-8-fluoro-2-(((2R,7aS)-2-fluorotetrahydro-1H-pyrrolizin-7a(5H)-yl)methoxy)quinazolin-7-yl)-5-ethyl-5,6,7,8-tetrahydronaphthalen-2-ol], `CCC1CCCc2cc(O)cc(-c3c4c(c5c(N6C[C@H]7CC[C@@H](C6)N7)nc(OC[C@@]67CCCN6C[C@H](F)C7)nc5c3F)CCC4)c21` (stereo partly drawn) [Example 383, 4-(1-((1R,5S)-3,8-diazabicyclo[3.2.1]octan-3-yl)-5-fluoro-3-(((2R,7aS)-2-fluorotetrahydro-1H-pyrrolizin-7a(5H)-yl)methoxy)-8,9-dihydro-7H-cyclopenta[f]quinazolin-6-yl)-5-ethyl-5,6,7,8-tetrahydronaphthalen-2-ol] is 2.3-fold higher in IC50: 0.022 µM for the first, 0.05 µM for the second. The first is the more potent here.

Going from `CCC1CCc2cc(O)cc(-c3ccc4c(NCC5(N(C)C)CCC5)nc(OC[C@@]56CCCN5C[C@H](F)C6)nc4c3F)c21` (stereo partly drawn) [Example 429, 7-(4-(((1-(dimethylamino)cyclobutyl)methyl)amino)-8-fluoro-2-(((2R,7aS)-2-fluorotetrahydro-1H-pyrrolizin-7a(5H)-yl)methoxy)quinazolin-7-yl)-1-ethyl-2,3-dihydro-1H-inden-5-ol] to `CCC1COc2cc(O)cc(-c3ccc4c(N5C[C@H]6CC[C@@H](C5)N6)nc(OC[C@@]56CCCN5C[C@H](F)C6)nc4c3F)c21` (stereo partly drawn) [Example 292, 4-(4-((1R,5S)-3,8-diazabicyclo[3.2.1]octan-3-yl)-8-fluoro-2-(((2R,7aS)-2-fluorotetrahydro-1H-pyrrolizin-7a(5H)-yl)methoxy)quinazolin-7-yl)-3-ethyl-2,3-dihydrobenzofuran-6-ol], the IC50 falls from 0.075 µM to 0.04 µM (1.9-fold).

Compared with `Oc1cc(-c2ccc3c(N4C[C@H]5CC[C@@H](C4)N5)nc(OC[C@@]45CCCN4C[C@H](F)C5)nc3n2)c2c(F)c(F)ccc2c1` [Example 142, 4-(4-((1R,5S)-3,8-diazabicyclo[3.2.1]octan-3-yl)-2-(((2R,7aS)-2-fluorotetrahydro-1H-pyrrolizin-7a(5H)-yl)methoxy)pyrido[2,3-d]pyrimidin-7-yl)-5,6-difluoronaphthalen-2-ol], `Oc1cc(O)c2c(C#Cc3ccc4c(N5C[C@H]6CC[C@@H](C5)N6)nc(OC[C@@]56CCCN5C[C@H](F)C6)nc4c3F)c(F)ccc2c1` [Example 366, 8-((4-((1R,5S)-3,8-diazabicyclo[3.2.1]octan-3-yl)-8-fluoro-2-(((2R,7aS)-2-fluorotetrahydro-1H-pyrrolizin-7a(5H)-yl)methoxy)quinazolin-7-yl)ethynyl)-7-fluoronaphthalene-1,3-diol] is lower in IC50: greater than 2.5 µM for the first, 2.1 µM for the second.

Compared with `C#Cc1c(F)ccc2cccc(-c3ccc4c(N5C[C@H]6CC[C@@H](C5)N6)nc(OC[C@]56CCCN5[C@@H](COC(=O)N(C)C)CC6)nc4c3)c12` [Example 155, ((3R,7aR)-7a-(((4-((1R, 5S)-3,8-diazabicyclo [3.2.1]octan-3-yl)-7-(8-ethynyl-7-fluoronaphthalen-1-yl)quinazolin-2-yl)oxy)methyl)hexahydro-1H-pyrrolizin-3-yl)methyl dimethylcarbamate], `C#Cc1c(F)ccc2cccc(N3CCc4c(nc(OC[C@@]56CCCN5C[C@H](COC(=O)N(C)C)C6)nc4N4C[C@H]5CC[C@@H](C4)N5)C3)c12` [Example 211, ((2R,7aS)-7a-(((4-((1R,5S)-3,8-diazabicyclo[3.2.1]octan-3-yl)-7-(8-ethynyl-7-fluoronaphthalen-1-yl)-5,6,7,8-tetrahydropyrido[3,4-d]pyrimidin-2-yl)oxy)methyl)hexahydro-1H-pyrrolizin-2-yl)methyl dimethylcarbamate] is 3.9-fold lower in IC50: 0.215 µM for the first, 0.055 µM for the second. The second is the more potent here.

First: Nc1cc(-c2ncc3c(N4C[C@H]5CC[C@@H](C4)N5)nc(OC[C@@]45CCCN4C[C@H](F)C5)nc3c2F)c2ccccc2c1 [Example 42, 4-(4-((1R,5S)-3,8-diazabicyclo[3.2.1]octan-3-yl)-8-fluoro-2-(((2R,7aS)-2-fluorotetrahydro-1H-pyrrolizin-7a(5H)-yl)methoxy)pyrido[4,3-d]pyrimidin-7-yl) naphthalen-2-amine]
Second: Cc1nccc2cc(O)cc(-c3ncc4c(N5C[C@H]6CC[C@@H](C5)N6)nc(OC[C@@]56CCCN5C[C@H](F)C6)nc4c3F)c12 [Example 343, 8-(4-((1R,5S)-3,8-diazabicyclo[3.2.1]octan-3-yl)-8-fluoro-2-(((2R,7aS)-2-fluorotetrahydro-1H-pyrrolizin-7a(5H)-yl)methoxy)pyrido[4,3-d]pyrimidin-7-yl)-1-methylisoquinolin-6-ol]
The IC50 of the first is 6.4-fold higher: 0.109 µM for the first, 0.017 µM for the second.

`C#CC1CCCc2cc(O)cc(-c3ncc4c(N5C[C@H]6CC[C@@H](C5)N6)nc(OC[C@@]56CCCN5C[C@H](F)C6)nc4c3F)c21` (stereo partly drawn) [Example 248, 4-(4-((1R,5S)-3,8-diazabicyclo[3.2.1]octan-3-yl)-8-fluoro-2-(((2R,7aS)-2-fluorotetrahydro-1H-pyrrolizin-7a(5H)-yl)methoxy)pyrido[4,3-d]pyrimidin-7-yl)-5-ethynyl-5,6,7,8-tetrahydronaphthalen-2-ol] and `C#CC1CCc2cc(O)cc(-c3ncc4c(N5C[C@H]6CC[C@@H](C5)N6)nc(OC[C@@]56CCCN5C[C@H](F)C6)nc4c3F)c21` (stereo partly drawn) [Example 247, 7-(4-((1R,5S)-3,8-diazabicyclo[3.2.1]octan-3-yl)-8-fluoro-2-(((2R,7aS)-2-fluorotetrahydro-1H-pyrrolizin-7a(5H)-yl)methoxy)pyrido[4,3-d]pyrimidin-7-yl)-1-ethynyl-2,3-dihydro-1H-inden-5-ol] are within 1.5-fold of each other in IC50: 0.0067 µM for the first, 0.0061 µM for the second.

Compared with `CCc1c(F)ccc2cc(O)cc(C3=C(F)c4nc(OC[C@@]56CCCN5C[C@H](F)C6)nc(N5C[C@H]6CC[C@@H](C5)N6)c4C4=NCCN43)c12` [Example 403, 4-(10-((1R,5S)-3,8-diazabicyclo[3.2.1]octan-3-yl)-6-fluoro-8-(((2R,7aS)-2-fluorotetrahydro-1H-pyrrolizin-7a(5H)-yl)methoxy)-2,3-dihydroimidazo[1′,2′:1,2]pyrido[4,3-d]pyrimidin-5-yl)-5-ethyl-6-fluoronaphthalen-2-ol], `C[C@@H]1CCCc2cc(O)cc(-c3ncc4c(N5CC6CCC(C5)N6)nc(OC[C@@]56CCCN5C[C@H](F)C6)nc4c3F)c21` (single isomer, unassigned) [Example 225, (R)-4-(4-((1R,5S)-3,8-diazabicyclo[3.2.1]octan-3-yl)-8-fluoro-2-(((2R,7aS)-2-fluorotetrahydro-1H-pyrrolizin-7a(5H)-yl)methoxy)pyrido[4,3-d]pyrimidin-7-yl)-5-methyl-5,6,7,8-tetrahydronaphthalen-2-ol or (S)-4-(4-((1R,5S)-3,8-diazabicyclo[3.2.1]octan-3-yl)-8-fluoro-2-(((2R,7aS)-2-fluorotetrahydro-1H-pyrrolizin-7a(5H)-yl)methoxy)pyrido[4,3-d]pyrimidin-7-yl)-5-methyl-5,6,7,8-tetrahydronaphthalen-2-ol] is 11-fold higher in IC50: 0.06 µM for the first, 0.668 µM for the second.

`CCC1c2c(-c3ncc4c(N5C[C@H]6CC[C@@H](C5)N6)nc(OC[C@@]56CCCN5C[C@H](F)C6)nc4c3F)cc(O)cc2C2CC21` (stereo partly drawn) [Example 355, 5-(4-((1R,5S)-3,8-diazabicyclo[3.2.1]octan-3-yl)-8-fluoro-2-(((2R,7aS)-2-fluorotetrahydro-1H-pyrrolizin-7a(5H)-yl)methoxy)pyrido[4,3-d]pyrimidin-7-yl)-6-ethyl-1,1a,6,6a-tetrahydrocyclopropa[a]inden-3-ol] and `COC1CCCc2cc(O)cc(-c3ncc4c(N5C[C@H]6CC[C@@H](C5)N6)nc(OC[C@@]56CCCN5C[C@H](F)C6)nc4c3F)c21` (stereo partly drawn) [Example 270, 4-(4-((1R,5S)-3,8-diazabicyclo[3.2.1]octan-3-yl)-8-fluoro-2-(((2R,7aS)-2-fluorotetrahydro-1H-pyrrolizin-7a(5H)-yl)methoxy)pyrido[4,3-d]pyrimidin-7-yl)-5-methoxy-5,6,7,8-tetrahydronaphthalen-2-ol] are the same in IC50: 0.02 µM for the first, 0.02 µM for the second.

In the case of `CCc1cccc2cc(O)cc(-c3ccc4c(N5C[C@H]6CC[C@@H](C5)N6)nc(OCC5(CN6CCCC6)CC5)nc4c3F)c12` [Example 104, 4-(4-((1R,5S)-3,8-diazabicyclo[3.2.1]octan-3-yl)-8-fluoro-2-((1-(pyrrolidin-1-ylmethyl)cyclopropyl)methoxy)quinazolin-7-yl)-5-ethylnaphthalen-2-ol], the IC50 is reported as 0.057 µM.
